Key:
[1] = target: T1, porcine leukocyte 12/15-Lipoxygenase (Sus scrofa, UniProt P16469); experiment: 12/15-Lipoxygenase Enzyme Assay; type: biochemical; settings: 70 μM arachidonic acid, 10 minute incubation at room temperature, FOX reagent, absorbance at 620 nm; read-out: inhibition of 12/15-Lipoxygenase with an IC50
T1 sequence (P16469 1-663): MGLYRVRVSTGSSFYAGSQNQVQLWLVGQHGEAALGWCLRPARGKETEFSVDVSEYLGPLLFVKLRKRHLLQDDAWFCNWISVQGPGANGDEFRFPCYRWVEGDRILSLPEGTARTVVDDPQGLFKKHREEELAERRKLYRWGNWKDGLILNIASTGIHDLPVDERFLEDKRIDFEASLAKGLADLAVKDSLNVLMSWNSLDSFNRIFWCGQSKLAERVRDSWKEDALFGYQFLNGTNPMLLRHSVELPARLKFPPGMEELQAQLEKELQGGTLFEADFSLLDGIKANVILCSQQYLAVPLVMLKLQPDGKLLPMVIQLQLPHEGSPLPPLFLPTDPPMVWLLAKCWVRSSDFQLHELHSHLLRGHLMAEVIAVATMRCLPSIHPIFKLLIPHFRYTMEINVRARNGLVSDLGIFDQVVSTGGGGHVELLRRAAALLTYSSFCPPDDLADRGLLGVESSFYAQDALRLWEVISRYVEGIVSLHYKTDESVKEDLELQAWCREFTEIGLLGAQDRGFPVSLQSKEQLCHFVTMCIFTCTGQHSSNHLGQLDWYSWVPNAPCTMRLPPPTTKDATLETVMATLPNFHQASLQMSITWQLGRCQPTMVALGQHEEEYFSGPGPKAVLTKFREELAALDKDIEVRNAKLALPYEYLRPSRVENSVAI
Description: This procedure was used for measuring the enzymatic activity of porcine leukocyte 12/15-Lipoxygenase using a […] method based on the ferric oxidation of xylenol orange.
• 96 well flat bottom microfilter plates (VWR, Catalog # 62402-933 9295) • Lipoxygenase screening assay buffer (Cayman, Catalog # 760710) • Porcine leukocyte 12/15-Lipoxygenase (Cayman, Catalog # 60300) • Arachidonic Acid (Sigma, Catalog # A3555) • Xylenol orange tetrasodium salt (Aldrich, Catalog # 227854) • Iron (II) sulfate heptahydrate (Sigma, Catalog # F7002) • Sulfuric acid (95-98%) [18M] • Methanol Procedure
Porcine Leukocyte 12/15-Lipoxygenase (Cayman Cat # 60300) was used in this assay. Test compound and/or vehicle was added to 1.3 μL 12/15-Lipoxygenase in 50 mM Tris-HCl buffer, pH 7.4. The reaction was initiated by addition of 70 μM arachidonic acid in Tris-HCl buffer, pH 7.4, and terminated after a 10 minute incubation at room temperature by addition of FOX reagent (25 mM sulfuric acid, 100 μM xylenol orange, 100 μM iron (II) sulfate, methanol:water 9:1). The yellow color of acidified xylenol orange was converted to a blue color by the lipid hydroperoxide-mediated oxidation of Fe^2+ ions and the interaction of the resulting Fe^3+ ions with the dye. The complex was allowed to form during a 1 hour incubation at room temperature with shaking. Absorbance of the Fe^3+ complex was then measured at […] using a spectrophotometer.
Negative controls contained enzyme during the incubation step but substrate was not added until after the FOX reagent. Compounds are screened at 5 concentrations in triplicate starting at 10 μM

[2] = target: T2, human recombinant 5-Lipoxygenase (Homo sapiens, UniProt P09917); experiment: 5-Lipoxygenase Enzyme Assay; type: biochemical; settings: 70 μM arachidonic acid, 10 minute incubation at room temperature, FOX reagent, absorbance at 620 nm; read-out: inhibition of 5-Lipoxygenase with an IC50
T2 sequence (P09917 1-674): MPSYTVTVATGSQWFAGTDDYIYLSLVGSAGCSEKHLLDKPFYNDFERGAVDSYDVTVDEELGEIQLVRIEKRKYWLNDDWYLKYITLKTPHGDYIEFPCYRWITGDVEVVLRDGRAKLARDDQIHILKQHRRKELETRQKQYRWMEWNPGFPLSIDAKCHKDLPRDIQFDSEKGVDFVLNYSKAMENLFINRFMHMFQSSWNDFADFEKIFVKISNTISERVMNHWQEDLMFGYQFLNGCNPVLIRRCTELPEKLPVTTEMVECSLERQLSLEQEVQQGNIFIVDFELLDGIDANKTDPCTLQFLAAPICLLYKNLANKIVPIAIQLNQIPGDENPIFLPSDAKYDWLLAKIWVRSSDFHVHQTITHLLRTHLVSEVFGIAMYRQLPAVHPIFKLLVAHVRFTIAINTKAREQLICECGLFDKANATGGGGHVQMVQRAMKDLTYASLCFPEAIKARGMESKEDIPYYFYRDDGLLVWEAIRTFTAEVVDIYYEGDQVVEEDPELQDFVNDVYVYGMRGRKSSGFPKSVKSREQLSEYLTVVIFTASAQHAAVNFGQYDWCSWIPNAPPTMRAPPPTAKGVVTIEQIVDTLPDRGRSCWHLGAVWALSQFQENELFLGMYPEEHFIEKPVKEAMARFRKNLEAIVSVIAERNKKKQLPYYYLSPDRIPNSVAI
Procedure, shortened: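 Recombinant human 5-LOX in 50 mM Tris-HCl pH 7.4 was preincubated with compound, then 70 μM arachidonic acid was added for 10 min at room temperature. Hydroperoxide was read by FOX reagent (ferric xylenol orange, 1 h complex formation) as absorbance at 620 nm. Five concentrations in triplicate were tested, starting at 10 μM.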

[3] = tested on: LTB4 production in human whole blood; experiment: Inhibition of LTB4 Production in Blood; type: cell-based; settings: 1 h, 20 μM A23187, 60 minutes at 37° C., LTB4 in plasma by ELISA, read-out: protection against LTB4 at an EC50
Procedure, shortened: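 Citrated human whole blood preincubated 15 min at 37 °C with compound (top final 30 μM, 1:3 dilutions, quadruplicate), then stimulated with 20 μM A23187 for 60 min at 37 °C. Plasma LTB4 quantified by ELISA; IC50 from percent inhibition versus vehicle.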

[4] = tested on: release of the leukotriene LTB4 from a neutrophil cell line (MPRO cell line); experiment: LTB4-Cell Assay; type: cell-based; settings: Mus musculus, 1 h, read-out: inhibition of LTB4 with an EC50
Description: • This procedure was used for measuring the release of the leukotriene LTB4 from a neutrophil cell line using a competitive ELISA technique. Materials and Equipments Materials for Cell Preparation and Experiment • MPRO cell line (ATCC, Catalog # CRL-11422) • Calcium ionophore (A23187) (Sigma, Catalog # C7522) • Nordihydroguaiaretic acid (NDGA) (BioMol ,Catalog # EI101-0001) • Retinoic Acid (all-trans) (ATRA) (Sigma, Catalog # 95152) • Sterile, tissue-culture treated 96-well plates (Corning, Catalog # 3614) Materials for LTB4 ELISA • Precoated (Mouse Anti-Rabbit IgG) EIA 96 Well Strip Plates (Cayman, Catalog # 400004) • Leukotriene B4 AChE Tracer (Cayman Catalog # 420110) • Leukotriene B4 EIA Antiserum (Cayman Catalog # 420112) • Ellman's Reagent (Cayman Catalog # 400050) • EIA Buffer Concentrate (10×) (Cayman Catalog # 400060) • Wash Buffer Concentrate (400×) (Cayman Catalog # 400062) • Plastic plate covers (Cayman Catalog # 400012) Procedure
A mouse promyelocytic cell line (MPRO) was used in this assay. These cells are committed immature neutrophils that can be differentiated into mature neutrophils by treatment with 10 μM all-trans retinoic acid for 72 hours.
Following 72 hours of differentiation, cells were stimulated with 1 μM of a calcium ionophore (A23187) in the presence or absence of test compound or vehicle for 1 hour at 37° C. After this time, supernatant was removed from the cells and the LTB4 levels were determined following manufacturer's instructions, using a Leukotriene B4 EIA kit from Cayman (Cat # 5201 11). The negative controls were media samples from differentiated but un-stimulated cells. The compounds were screened at 5 concentrations in quadruplicate starting at 10 μM.

Cc1c(O)cc2c(c1C)N(c1ccc(Cl)cc1)CC1(CCC1)C2O (stereo not shown) [1′-(4-chlorophenyl)-7′,8′-dimethyl-2′,4′-dihydro-1′H-spiro[cyclobutane-1,3′-quinoline]-4′,6′-diol]
IC50 [1]: < 5 µM

CONC1CC2(CCC2)Oc2cc(C)c(O)c(C)c21 (stereo not shown) [4-(methoxyamino)-5,7-dimethyl-3,4-dihydrospiro[chromene-2,1′-cyclobutan]-6-ol]
IC50 [2]: < 0.3 µM | EC50 [3]: < 10 µM | EC50 [4]: < 5 µM

CCOC1c2c(C)c(O)c(C)c(C)c2OCC12CCC2 (stereo not shown) [4-ethoxy-5,7,8-trimethylspiro[chroman-3,1′-cyclobutan]-6-ol]
IC50 [2]: < 0.3 µM | EC50 [3]: < 10 µM | EC50 [4]: < 5 µM

CCOC1CC2(CCC2)Oc2cc(C)c(O)c(C)c21 (stereo not shown) [4-ethoxy-5,7-dimethyl-3,4-dihydrospiro[chromene-2,1′-cyclobutan]-6-ol]
IC50 [2]: < 0.3 µM | EC50 [3]: < 10 µM | EC50 [4]: < 5 µM

COC1c2c(C)c(O)c(C)c(C)c2OCC12CCC2 (stereo not shown) [4-methoxy-5,7,8-trimethylspiro[chroman-3,1′-cyclobutan]-6-ol]
IC50 [2]: < 0.3 µM | EC50 [3]: < 10 µM | EC50 [4]: < 5 µM

COC1CC2(CCC2)Oc2cc(C)c(O)c(C)c21 (stereo not shown) [4-methoxy-5,7-dimethyl-3,4-dihydrospiro[chromene-2,1′-cyclobutan]-6-ol]
IC50 [2]: < 0.3 µM | EC50 [3]: < 10 µM | EC50 [4]: < 5 µM

CCc1cc2c(c(CC)c1O)/C(=N/OC)CC1(CCC1)O2 [5,7-diethyl-6-hydroxyspiro[chromene-2,1′-cyclobutan]-4(3H)-one O-methyloxime]
IC50 [2]: < 0.3 µM | EC50 [3]: < 10 µM | EC50 [4]: < 5 µM

CCc1cc2c(c(CC)c1O)/C(=N/O)CC1(CCC1)O2 [5,7-diethyl-6-hydroxyspiro[chromene-2,1′-cyclobutan]-4(3H)-one oxime]
IC50 [2]: < 0.3 µM | EC50 [3]: < 10 µM | EC50 [4]: < 5 µM

CC(C)c1cc2c(c(C(C)C)c1O)CCC1(CCC1)O2 [5,7-diisopropyl-3,4-dihydrospiro[chromene-2,1′-cyclobutan]-6-ol]
IC50 [2]: < 0.3 µM | EC50 [3]: < 10 µM | EC50 [4]: < 5 µM

Cc1c(O)c(C)c(-c2cnco2)c2c1CCC1(CCC1)O2 [5,7-dimethyl-8-(1,3-oxazol-5-yl)-3,4-dihydrospiro[chromene-2,1′-cyclobutan]-6-ol]
IC50 [2]: < 0.3 µM | EC50 [3]: < 10 µM | EC50 [4]: < 5 µM

CCCCc1cc(-c2c(C)c(O)c(C)c3c2OC2(CCC2)CC3)no1 [5,7-dimethyl-8-(5-butyl-isoxazol-3-yl)-3,4-dihydrospiro[chromene-2,1′-cyclobutan]-6-ol]
IC50 [2]: < 0.3 µM | EC50 [3]: < 10 µM | EC50 [4]: < 5 µM

Cc1c(C)c2c(c(C)c1O)C(C#N)CC1(CCC1)O2 (stereo not shown) [6-hydroxy-5,7,8-trimethyl-3,4-dihydrospiro[chromene-2,1′-cyclobutane]-4-carbonitrile]
IC50 [2]: < 0.3 µM | EC50 [3]: < 10 µM | EC50 [4]: < 5 µM

Cc1cc2c(c(C)c1O)/C(=N/O)CC1(CCC1)O2 [6-hydroxy-5,7-dimethylspiro[chromene-2,1′-cyclobutan]-4(3H)-one oxime]
IC50 [2]: < 0.3 µM | EC50 [3]: < 10 µM | EC50 [4]: < 5 µM

CCO/N=C1\CC2(CCC2)Sc2c(C)c(C)c(O)c(C)c21 [6′-hydroxy-5′,7′,8′-trimethylspiro[cyclobutane-1,2′-thiochromen]-4′(3′H)-one O-ethyloxime]
IC50 [2]: < 0.3 µM | EC50 [3]: < 10 µM | EC50 [4]: < 5 µM

CCO/N=C1\CC2(CCC2)Sc2cc(C)c(O)c(C)c21 [6′-hydroxy-5′,7′-dimethylspiro[cyclobutane-1,2′-thiochromen]-4′(3′H)-one O-ethyloxime]
IC50 [2]: < 0.3 µM | EC50 [3]: < 10 µM | EC50 [4]: < 5 µM

CO/N=C1\CC2(CCC2)Sc2cc(C)c(O)c(C)c21 [6′-hydroxy-5′,7′-dimethylspiro[cyclobutane-1,2′-thiochromen]-4′(3′H)-one O-methyloxime]
IC50 [2]: < 0.3 µM | EC50 [3]: < 10 µM | EC50 [4]: < 5 µM

Cc1c(O)cc2c(c1C)OCC1(CCC1)C2 [7,8-dimethylspiro[chroman-3,1′-cyclobutan]-6-ol]
IC50 [2]: < 0.3 µM | EC50 [3]: < 10 µM | EC50 [4]: < 5 µM

Cc1c(O)cc2c(c1C)OCC1(CC1)C2 [7,8-dimethylspiro[chroman-3,1′-cyclopropan]-6-ol]
IC50 [2]: < 0.3 µM | EC50 [3]: < 10 µM | EC50 [4]: < 5 µM

CCONCc1c(C)c(O)c(C)c2c1OC1(CCC1)CC2 [8-[(ethoxyamino)methyl]-5,7-dimethyl-3,4-dihydrospiro[chromene-2,1′-cyclobutan]-6-ol]
IC50 [2]: < 0.3 µM | EC50 [3]: < 10 µM | EC50 [4]: < 5 µM

CONCc1c(C)c(O)c(C)c2c1OC1(CCC1)CC2 [8-[(methoxyamino)methyl]-5,7-dimethyl-3,4-dihydrospiro[chromene-2,1′-cyclobutan]-6-ol]
IC50 [2]: < 0.3 µM | EC50 [3]: < 10 µM | EC50 [4]: < 5 µM

Source: patent US7576094B2, “Spiro derivatives as lipoxygenase inhibitors” (Eli Lilly and Company, priority 2004, dated 2009)
